Here are results for 1 compound from US9914932B2, “Agrobacterium-mediated transformation of lipomyces” (Battelle Memorial Institute, priority 2014, dated 2018).

In one assay the test system is L. starkeyi. Nature of the assay: Antibiotic growth suppression on yeast synthetic complete (SC) medium agar plates. In kind it is cell-based, Lipomyces starkeyi. Particulars: 30° C. The text has this:
(§1) For effective selection of transgene expression in Lipomyces strains, several antibiotics were chosen to examine their effects on Lipomyces growth on yeast synthetic complete (SC, Sunrise Science Products, San Diego, Calif.) and yeast extract-peptone-detrose (YPD) medium plates, which included phosphinothricin ammonium (basta), geneticin (G418), hygromycin B (hyg), pyrithiamine and Zeocin (Zeo). Two day old Lipomyces cells grown in YPD liquid culture were used for evaluation of the antibiotic selection on the agar plates of SC or YPD. The original cells were diluted sequentially in 1:10 ratio with dH2O for four times and 10 μl cells from original culture and each dilution were spotted onto the proper agar medium plates. The plates were incubated in 30° C. incubator for 3 days. The inhibition effects of selected antibiotics on the selected plate were documented with Nikon D300s SLR digital camera (Nikon Inc., Melville, N.Y.) or the stereomicroscope-Leica MZ16 (Leica Microsystems, Buffalo Grove, Ill.).
(§2) About 5 to 10 colonies of 4 day old Lipomyces strains (except L. lipofer NRRL Y-11555 that required additional 4 days growth and more colonies due to its slow growth) grown on YPD medium agar plates were transferred into a 50 ml YPD liquid flask culture and grown at 30° C. and 200 rpm for 50 hrs. […]

Assay [1] has as its system L. lipofer (NRRL Y-11555). The assay can be described thus: Antibiotic growth suppression on SC medium agar plates. In kind it is cell-based, Lipomyces lipofer. Particulars: 100 mg/l, 30° C., FIG. 3.
Excerpt: as §1, §2

Assay [2] relates to L. doorenjongii (NRRL Y-27504). The assay is described as above. In kind it is cell-based, Lipomyces doorenjongii. To be noted: 100 mg/l, 30° C., FIG. 3.
Excerpt: as §1, §2

Assay [3] deals with all L. starkeyi strains and Lipomyces species. The assay can be described thus: Hygromycin B growth suppression on YPD agar plates. In kind it is cell-based, Lipomyces sp. To be noted: 30° C., all strains and species except L. suomiensis NRRL Y-17356, FIG. 4.
Excerpt: as §1, §2

Assay [4] concerns L. suomiensis strain NRRL Y-17356. Nature of the assay: Hygromycin B growth suppression on YPD agar plates. The assay is classed as cell-based, Lipomyces suomiensis. Particulars: 30° C., L. suomiensis NRRL Y-17356, FIG. 4.
Excerpt: as §1, §2

The next assay relates to Lipomyces strains. The assay can be described thus: Hygromycin B inhibition on Aspergillus minimal medium. The assay is classed as cell-based, Lipomyces sp. To be noted: 10 mg/l.
The test system of assay [5] is parent Lipomyces strains (Y-). Nature of the assay: Hygromycin resistance of parent Lipomyces cells, 1/10 series dilutions on YPD agar plates. The assay is classed as cell-based, Lipomyces sp. To be noted: 10 or 25 mg/l hygromycin B with 250 mg/L cefotaxime, FIG. 10. As for the experimental part: The hygromycin resistance of parent and transformed Lipomyces cells in a 1/10 series dilutions were compared on the same YPD agar plates with either 10 or 25 mg/l hygromycin B (hyg10 or hyg25, respectively) and 250 mg/L cefotaxime. […] The integration of pTef1-hph transgene expression cassette (FIG. 11A) was also confirmed by Southern blotting analysis which indicated 1 to 2 copies of the gene were inserted (FIG. 11B).

Each structure is given as a SMILES string.

For `CN[C@H]1C[C@@H](N)[C@H](O)[C@@H](O[C@@H]2O[C@H](CO)[C@H](O)[C@@H]3OC4(O[C@H]23)O[C@H]([C@@H](N)CO)[C@H](O)[C@H](O)[C@H]4O)[C@@H]1O` (some centres unmarked) [hygromycin B], the “growth selection (growth suppression) of L. starkeyi” value with L. starkeyi (100 mg/l hygromycin B, FIG. 2) is on record as “effective”. Moreover, the “growth suppression of three other L. starkeyi strains (NRRL Y-27493, NRRL Y-27494, NRRL Y-27495)” value in the assay on L. starkeyi (100 mg/l, FIG. 3) was “effectively suppress the growth”. Moreover, the “growth suppression of L. lipofer (NRRL Y-11555)” value in assay [1] is given as “effectively suppress the growth”. Moreover, in assay [2], the “growth suppression of L. doorenjongii (NRRL Y-27504)” value is recorded as “effectively suppress the growth”. In addition, in assay [3], the “concentration sufficient to suppress the growth” value was determined as 2.5 mg/L. In addition, in assay [4], the “concentration needed to suppress the growth” value is “at least 10 mg/l”. For the same compound, the “inhibition of Lipomyces strains” value in the assay with Lipomyces strains is reported as “effective inhibition”. For the same compound, the “growth of parent strains under hygromycin selection” value in assay [5] was “severely suppressed”.
